Data published in US11760722B2 (priority 2022, dated 2023).
pEC50: −log10 of the molar value. Like-named read-outs stand apart in the source and are kept apart here.

Test system: SARS-CoV-2 Delta USA/MD-HP05647/2021 (Lineage B.1.617.2)
Assay: microbe, parasite or virus in culture
Assay type: cell-based
Details: read-out: Vero E6 Delta CPE/EC50
[1] = Severe acute respiratory syndrome coronavirus 2, Vero C1008, 4 h

CC(C)(C)[C@H](NS(=O)(=O)c1ccc(C2CC2)cc1)C(=O)N1C[C@H]2[C@@H]([C@H]1C(=O)N[C@H](C#N)C[C@@H]1CCNC1=O)C2(C)C [Compound 121]
pEC50 [1]: > 8.35

CC(C)(C)[C@H](NS(=O)(=O)c1ccc2ccccc2c1)C(=O)N1C[C@H]2[C@@H]([C@H]1C(=O)N[C@H](C#N)C[C@@H]1CCNC1=O)C2(C)C [Compound 102]
pEC50 [1]: > 8.35

CC(C)(C)[C@H](NS(=O)(=O)c1cccs1)C(=O)N1C[C@H]2[C@@H]([C@H]1C(=O)N[C@H](C#N)C[C@@H]1CCNC1=O)C2(C)C [Compound 100]
pEC50 [1]: 7.43

CC(C)(C)[C@H](NS(=O)(=O)c1ccc(C(F)(F)F)cc1)C(=O)N1C[C@H]2[C@@H]([C@H]1C(=O)N[C@H](C#N)C[C@@H]1CCNC1=O)C2(C)C [Compound 90]
pEC50 [1]: 8.47

CCCc1ccc(S(=O)(=O)N[C@H](C(=O)N2C[C@H]3[C@@H]([C@H]2C(=O)N[C@H](C#N)C[C@@H]2CCNC2=O)C3(C)C)C(C)(C)C)s1 [Compound 171]
pEC50 [1]: 7.09

CNC(=S)N[C@H](C(=O)N1C[C@H]2[C@@H]([C@H]1C(=O)N[C@H](C#N)C[C@@H]1CCNC1=O)C2(C)C)C(C)(C)C [Compound 35]
pEC50 [1]: 7.11
pEC50: 6.83

CC(C)(C)[C@H](NS(=O)(=O)c1cccnc1)C(=O)N1C[C@H]2[C@@H]([C@H]1C(=O)N[C@H](C#N)C[C@@H]1CCNC1=O)C2(C)C [Compound 93]
pEC50 [1]: 6.43

CC(C)(C)[C@H](NS(=O)(=O)c1ccc(OC(F)(F)F)cc1)C(=O)N1C[C@H]2[C@@H]([C@H]1C(=O)N[C@H](C#N)C[C@@H]1CCNC1=O)C2(C)C [Compound 89]
pEC50 [1]: 7.21

CC(C)(C)[C@H](NS(=O)(=O)c1cc2ccccc2s1)C(=O)N1C[C@H]2[C@@H]([C@H]1C(=O)N[C@H](C#N)C[C@@H]1CCNC1=O)C2(C)C [Compound 111]
pEC50 [1]: > 8.35

Cc1ccc(S(=O)(=O)N[C@H](C(=O)N2C[C@H]3[C@@H]([C@H]2C(=O)N[C@H](C#N)C[C@@H]2CCNC2=O)C3(C)C)C(C)(C)C)s1 [Compound 118]
pEC50 [1]: 7.63

COc1ccc(S(=O)(=O)N[C@H](C(=O)N2C[C@H]3[C@@H]([C@H]2C(=O)N[C@H](C#N)C[C@@H]2CCNC2=O)C3(C)C)C(C)(C)C)cc1 [Compound 101]
pEC50 [1]: 9.51

CC(C)(C)[C@H](NC(=O)C(F)(F)C(F)(F)Cl)C(=O)N1C[C@H]2[C@@H]([C@H]1C(=O)N[C@H](C#N)C[C@@H]1CCNC1=O)C2(C)C [Compound 80]
pEC50 [1]: 7.69

CC(C)(C)[C@H](NS(=O)(=O)c1ccc(F)s1)C(=O)N1C[C@H]2[C@@H]([C@H]1C(=O)N[C@H](C#N)C[C@@H]1CCNC1=O)C2(C)C [Compound 113]
pEC50 [1]: 7.78

Cc1cc(S(=O)(=O)N[C@H](C(=O)N2C[C@H]3[C@@H]([C@H]2C(=O)N[C@H](C#N)C[C@@H]2CCNC2=O)C3(C)C)C(C)(C)C)sc1Cl [Compound 168]
pEC50 [1]: 7.66

CC(C)(C)[C@H](NC(=O)CS(C)(=O)=O)C(=O)N1C[C@H]2[C@@H]([C@H]1C(=O)N[C@H](C#N)C[C@@H]1CCNC1=O)C2(C)C [Compound 64]
pEC50 [1]: 5.88

CC(C)(C)[C@H](NS(=O)(=O)c1ccc2c(c1)CCO2)C(=O)N1C[C@H]2[C@@H]([C@H]1C(=O)N[C@H](C#N)C[C@@H]1CCNC1=O)C2(C)C [Compound 83]
pEC50 [1]: 7.69

Cc1ccc(S(=O)(=O)N[C@H](C(=O)N2C[C@H]3[C@@H]([C@H]2C(=O)N[C@H](C#N)C[C@@H]2CCNC2=O)C3(C)C)C(C)(C)C)cc1 [Compound 96]
pEC50 [1]: > 8.35

CC(C)(C)[C@H](NS(=O)(=O)c1ccc(F)cc1)C(=O)N1C[C@H]2[C@@H]([C@H]1C(=O)N[C@H](C#N)C[C@@H]1CCNC1=O)C2(C)C [Compound 53, (1R,2S,5S)—N—((S)-1-cyano-2-((S)-2-oxopyrrolidin-3-yl)ethyl)-3-((S)-2-((4-fluorophenyl)sulfonamido)-3,3-dimethylbutanoyl)-6,6-dimethyl-3-azabicyclo[3.1.0]hexane-2-carboxamide]
pEC50 [1]: 7.83
pEC50: 7.69

CC(C)(C)[C@H](NS(=O)(=O)N1CCOCC1)C(=O)N1C[C@H]2[C@@H]([C@H]1C(=O)N[C@H](C#N)C[C@@H]1CCNC1=O)C2(C)C [Compound 49]
pEC50 [1]: 5.80

CC(C)(C)[C@H](NC(=O)C1(C(F)(F)F)CC1)C(=O)N1C[C@H]2[C@@H]([C@H]1C(=O)N[C@H](C#N)C[C@@H]1CCNC1=O)C2(C)C [Compound 151]
pEC50 [1]: 5.79

CC1(C)[C@@H]2[C@@H](C(=O)N[C@H](C#N)C[C@@H]3CCNC3=O)N(C(=O)[C@@H](NC(=O)C(F)(F)F)C34CC(C3)C4)C[C@@H]21 [Compound 50]
pEC50 [1]: 6.24

CC(C)(C)[C@H](NC(=O)C(F)(Cl)C(F)(F)F)C(=O)N1C[C@H]2[C@@H]([C@H]1C(=O)N[C@H](C#N)C[C@@H]1CCNC1=O)C2(C)C (stereo partly shown) [Compound 75]
pEC50 [1]: 7.35
pEC50: 7.30

CN(C)[C@@H]1C[C@@H](C(=O)N[C@H](C#N)C[C@@H]2CCNC2=O)N(C(=O)[C@@H](NC(=O)C(F)(F)F)C(C)(C)C)C1 [Compound 116]
pEC50 [1]: 5.40

CC(C)(C)[C@H](NC(=O)C12CC(F)(C1)C2)C(=O)N1C[C@H]2[C@@H]([C@H]1C(=O)N[C@H](C#N)C[C@@H]1CCNC1=O)C2(C)C [Compound 34]
pEC50 [1]: 6.56

CC(C)(C)[C@H](NC(=O)C(F)(F)C(F)(F)C(F)(F)F)C(=O)N1C[C@H]2[C@@H]([C@H]1C(=O)N[C@H](C#N)C[C@@H]1CCNC1=O)C2(C)C [Compound 133]
pEC50 [1]: 6.36

CC(C)(C)[C@H](NS(=O)(=O)c1ccccc1)C(=O)N1C[C@H]2[C@@H]([C@H]1C(=O)N[C@H](C#N)C[C@@H]1CCNC1=O)C2(C)C [Compound 95]
pEC50 [1]: 7.97

CC(C)(C)c1ccc(S(=O)(=O)N[C@H](C(=O)N2C[C@H]3[C@@H]([C@H]2C(=O)N[C@H](C#N)C[C@@H]2CCNC2=O)C3(C)C)C(C)(C)C)s1 [Compound 117]
pEC50 [1]: 6.47

CC(C)(C)[C@H](NS(=O)(=O)c1ccns1)C(=O)N1C[C@H]2[C@@H]([C@H]1C(=O)N[C@H](C#N)C[C@@H]1CCNC1=O)C2(C)C [Compound 122]
pEC50 [1]: 6.74

CC(C)(C)[C@H](NC(=O)NC1(CS(=O)(=O)C(C)(C)C)CCCCC1)C(=O)N1C[C@H]2[C@@H]([C@H]1C(=O)N[C@H](C#N)C[C@@H]1CCNC1=O)C2(C)C [Compound 16]
pEC50 [1]: 5.53

CC(C)(C)[C@H](NC(=O)c1ccc2c(c1)CCC2)C(=O)N1C[C@H]2[C@@H]([C@H]1C(=O)N[C@H](C#N)C[C@@H]1CCNC1=O)C2(C)C [Compound 120]
pEC50 [1]: 5.10

CC(C)(C)[C@H](NS(=O)(=O)c1sccc1Cl)C(=O)N1C[C@H]2[C@@H]([C@H]1C(=O)N[C@H](C#N)C[C@@H]1CCNC1=O)C2(C)C [Compound 114]
pEC50 [1]: 7.79

CC(C)[C@H]1CC[C@H](C)C[C@@H]1OCC(=O)N[C@H](C(=O)N1C[C@H]2[C@@H]([C@H]1C(=O)N[C@H](C#N)C[C@@H]1CCNC1=O)C2(C)C)C(C)(C)C [Compound 110]
pEC50 [1]: 5.70

CN(C)S(=O)(=O)N[C@H](C(=O)N1C[C@H]2[C@@H]([C@H]1C(=O)N[C@H](C#N)C[C@@H]1CCNC1=O)C2(C)C)C(C)(C)C [Compound 47, (1R,2S,5S)—N—((S)-1-cyano-2-((S)-2-oxopyrrolidin-3-yl)ethyl)-3-((S)-2-((N,N-dimethylsulfamoyl)amino)-3,3-dimethylbutanoyl)-6,6-dimethyl-3-azabicyclo[3.1.0]hexane-2-carboxamide]
pEC50 [1]: 6.62

CC(C)(C)[C@H](NS(=O)(=O)c1ccc(F)c(F)c1)C(=O)N1C[C@H]2[C@@H]([C@H]1C(=O)N[C@H](C#N)C[C@@H]1CCNC1=O)C2(C)C [Compound 99]
pEC50 [1]: 7.65

CC(C)(C)[C@H](NC(=O)c1cnc2[nH]ccc2c1)C(=O)N1C[C@H]2[C@@H]([C@H]1C(=O)N[C@H](C#N)C[C@@H]1CCNC1=O)C2(C)C [Compound 32]
pEC50 [1]: 4.00

CC(C)(C)[C@H](NC(=O)Cc1ccc2c(c1)CCC2)C(=O)N1C[C@H]2[C@@H]([C@H]1C(=O)N[C@H](C#N)C[C@@H]1CCNC1=O)C2(C)C [Compound 82]
pEC50 [1]: 8.02

CC(C)(C)[C@H](NC(=O)CC#N)C(=O)N1C[C@H]2[C@@H]([C@H]1C(=O)N[C@H](C#N)C[C@@H]1CCNC1=O)C2(C)C [Compound 33]
pEC50 [1]: 6.03

CC(C)(C)[C@H](NC(=S)NC1CC1)C(=O)N1C[C@H]2[C@@H]([C@H]1C(=O)N[C@H](C#N)C[C@@H]1CCNC1=O)C2(C)C [Compound 76]
pEC50 [1]: 6.08

CC(C)(C)[C@H](NS(=O)(=O)c1cccc2ccccc12)C(=O)N1C[C@H]2[C@@H]([C@H]1C(=O)N[C@H](C#N)C[C@@H]1CCNC1=O)C2(C)C [Compound 85]
pEC50 [1]: > 8.35

CCNC(=S)N[C@H](C(=O)N1C[C@H]2[C@@H]([C@H]1C(=O)N[C@H](C#N)C[C@@H]1CCNC1=O)C2(C)C)C(C)(C)C [Compound 72]
pEC50 [1]: 6.58

Cc1csc(S(=O)(=O)N[C@H](C(=O)N2C[C@H]3[C@@H]([C@H]2C(=O)N[C@H](C#N)C[C@@H]2CCNC2=O)C3(C)C)C(C)(C)C)c1 [Compound 112]
pEC50 [1]: 7.20

CC(C)(C)[C@H](NS(=O)(=O)c1ccc(Cl)s1)C(=O)N1C[C@H]2[C@@H]([C@H]1C(=O)N[C@H](C#N)C[C@@H]1CCNC1=O)C2(C)C [Compound 54]
pEC50 [1]: > 8.35

CC(C)(C)NC(=O)N[C@H](C(=O)N1C[C@H]2[C@@H]([C@H]1C(=O)N[C@H](C#N)C[C@@H]1CCNC1=O)C2(C)C)C(C)(C)C [Compound 87]
pEC50 [1]: 6.24

CN(C)C(=S)N[C@H](C(=O)N1C[C@H]2[C@@H]([C@H]1C(=O)N[C@H](C#N)C[C@@H]1CCNC1=O)C2(C)C)C(C)(C)C [Compound 77]
pEC50 [1]: 5.81

C=C(F)C(=O)N[C@H](C(=O)N1C[C@H]2[C@@H]([C@H]1C(=O)N[C@H](C#N)C[C@@H]1CCNC1=O)C2(C)C)C(C)(C)C [Compound 66]
pEC50 [1]: 7.03
pEC50: 7.01
